Measured values taken from patent publication US20070092942A1, “Ubiquitin specific enzymes of family herpesviridae” (priority 2005, published 2007).

Assays:
His6UL36^USP = biological target: T1, His6UL36^USP (Human herpesvirus 1, UniProt P10220); experiment: Cleavage of Ub-AMC by recombinant UL36^USP; format: biochemical, HSV-1; conditions: 10 pmol inhibitor pre-incubated 30 minutes with ~0.1 pmol enzyme
T1 construct: amino acids 1 to 533 of the UL36 gene product from HHV HSV1; 6-His (pET-28a(+)) (N); 6-His (pET-28a(+)) (C); made in house; host or cells: E. coli BL21 or BL21 RIPL
Procedure: Recombinant UL36^USP and UL36^USP/C65A (˜0.1 pmol) were incubated in 125 μl kinetics buffer (50 mM HEPES, pH 7.5, 0.5 mM EDTA) supplemented with 1 mM DTT at room temperature for 10 minutes. To this was added 75 μl of Ub-AMC (250 nM in kinetics buffer) and AMC liberation was measured at 25° C. For inhibition experiments, one of UbVME, SUMO-VME, ISG15-VS, or Nedd8-VS (10 pmol) was incubated with recombinant UL36^USP (˜0.1 pmol) for 30 minutes at room temperature. To this was added 75 μl of Ub-AMC (250 nM in kinetics buffer) and AMC liberation was measured. Cleavage experiments were performed in triplicate. All fluorescence measurements were made using a Wallac Victor^3 1420 fluorescence/luminescence plate reader (Perkin Elmer) using 380 nm excitation and 460 nm emission wavelengths, with 5 second intervals between measurements. Data were exported as an Excel file and plotted as mean values of replicate experiments using Kaleidagraph v3.6 (Synergy Software).
In a typical eukaryotic cell, the presence of multiple DUBs, whose substrate pool and catalytic activities may overlap, confounds straightforward analysis of the activity of any one particular DUB. Although we have found excellent correlation between labeling of polypeptides with the Ub/UbL probes and their identification as active DUBs, the probes are covalent inactivators and cannot be used to assess enzymatic (i.e. catalytic) peptidase activity. To validate the activity of UL36^USP as a protease with specificity for Ub-modified substrates, we cloned a sequence spanning the 533 N-terminal amino acids of HSV-1 UL36^USP into a His-tagged expression vector (His6-UL36^USP). We also generated a point mutant of this construct in which the active site cysteine residue, Cys^65, was replaced by alanine (His6UL36^USP/C65A). The proteins were expressed, purified over Ni-NTA resin and evaluated for their ability to cleave Ub C-terminal 7-amido-4-methylcoumarin (Ub-AMC) (Dang et al., 1998). […] The results are consistent with the labeling experiments using UbL probes with HSV-1-infected lysates (FIG. 4B).

UL36^USP = experiment: Electrophilic probe labeling of HSV-1 infected HFF cell lysates, immunoblot; format: binding; conditions: for Labeling / reaction of UL36^USP by electrophilic probe: HSV-infected HFF lysates, immunoblot
Procedure: HFFs were infected with HSV-1 KOS at an MOI of 10 and harvested by trypsinolysis at the indicated times post infection. Cells were washed 1× in PBS and pelleted by centrifugation in a microcentrifuge at 3,000×g for 20 minutes at 4° C. Cells were lysed by adding 2× the pellet volume of NP40 lysis buffer (150 mM NaCl, 50 mM Tris pH 7.4, 5 mM MgCl2, 0.5 mM EDTA, 2 mM DTT, 2 mM ATP, 0.5% NP40) and rocking at 4° C. for 1 hour. Cell lysates were centrifuged at 12,000×g for 20 minutes at 4° C. Protein concentration of supernatants was established by Bradford assay and lysates were standardized to 5 μg/μl by the addition of the required volume of NP40 lysis buffer. For each labeling reaction, 50 μg of lysate was incubated with 0.8 μg of probe in a total volume of 60 μL of homogenization buffer (50 mM Tris pH 7.5, 5 mM MgCl2, 0.5 mM EDTA, 2 mM DTT, 2 mM ATP, 250 mM sucrose). For reactions involving NEM, lysates were incubated at room temperature for 30 minutes with 5 mM NEM prior to addition of probe. Reactions were incubated for 30 minutes at R.T. Samples were boiled in reducing sample buffer and separated by SDS-PAGE. Proteins were transferred to PVDF membranes and immunoblotted with mouse monoclonal anti-HA antibody (12CA5) at 1:4000 dilution followed by goat anti-mouse IgG-HRP (Southern Biotech) at 1: 10,000 dilution. Blots were developed using Western Lightning chemiluminescence reagent (Perkin Elmer).
To profile DUB activity during HSV-1 infection, we used HA-tagged Ub-vinylmethyl ester (HAUbVME) (Borodovsky et al., 2002). Human foreskin fibroblasts (HFFs) were infected with HSV-1 at a multiplicity of infection of 10, harvested at 4, 6, 9, 12, 22 and 30 hours post-infection (p.i.), and lysed.
To address whether UL36^USP labeling by HAUbVME was a consequence of the Ub or the VME moiety, we incubated lysates of HSV-infected HFFs at 24 hours p.i. with related electrophilic derivatives (Borodovsky et al., 2002). […] There are a number of Ub-like (UbL) proteins in eukaryotes (Larsen and Wang, 2002). This family of UbL proteins has diversified functionally to cover many cellular pathways: SUMO proteins function in nuclear signaling and transcription (Hay, 2005); ISG15 is an interferon-inducible gene product (Ritchie and Zhang, 2004); and the closest homolog of Ub, Nedd8, is an activator of the cullin family of E3 Ub ligases (Petroski and Deshaies, 2005; Willems et al., 2004). Probes derived from Ub and UbL modifiers target proteases that are either specific for a single Ub/UbL or selective for a limited number of these proteases (Borodovsky et al., 2002; Hemelaar et al., 2004). We explored the reactivity of UL36^USP with Ub and UbL-derived probes to determine its specificity. We incubated lysates of mock-infected and HSV-infected HFFs at 24 hours p.i. with either HAUbVME or with one of three UbL probes, HA-SUMO-1-VME, HA-ISG15-VME or FLAG-Nedd8-VS (FIG. 4B).

[1] = system: mCMV285, mCMV575 (mCMV UL36 homologue); experiment: HAUbVME labeling of purified recombinant mCMV285 / mCMV575, SDS-PAGE and immunoblot; format: binding, mouse cytomegalovirus
From the text: (§1) To investigate functionality of this minimal DUB consensus domain we cloned the relevant genomic fragments for heterologous expression and subsequent biochemical characterization. The corresponding DNA fragments, encoding for AA 1-205 of EBV (EBV205) and AA 1-285 of mCMV (mCMV285), were PCR-cloned into pET28 according to standard procedures. Following expression in E. coli BL21-DE3, the fragments bearing a N-terminal His-tag were purified using a Ni-NTA resin (Qiagen) and subsequently subjected to a gel filtration column (S75 HiLoad, Amersham Pharmacia Biotech) equilibrated in storage buffer (50 mM Tris, 50 mM KCl, 50 mM NaCl, 0.5 mM EDTA, 2 mM DTT, 10% (v/v) glycerol, pH 7.5) to achieve apparent homogeneity. To address whether the purified constructs display DUB activity, we used HA-tagged Ub-vinylmethyl ester (HAUbVME), a probe that acts as suicide substrate for DUBs by forming a thioether bond to the active site cysteine. Reactions were performed using final concentrations of 1 μM enzyme (EBV205 or mCMV285) in the absence and presence of 2 μM HAUbVME in reaction buffer (50 mM Tris, 100 mM NaCl, 1 mM DTT pH 7.5) for 30 min at 37° C. Following incubation, samples were boiled in reducing sample buffer and subjected to SDS-PAGE.
(§2) In the case of mCMV, we also constructed a longer variant that terminates at position 575 (mCMV575).

mCMV285, mCMV575 = experiment: UbAMC hydrolysis assay with mCMV285 and mCMV575; format: biochemical, mouse cytomegalovirus; conditions: enzyme 100 pM, Ub-AMC 100 nM
Procedure: (§3) We next tested the ability of the enzymes to cleave Ub-AMC (Ub C-terminal 7-amido-4-methylcoumarin, Boston Biochem). UbAMC hydrolysis assays were performed in reaction buffer supplemented with BSA (50 μg/ml) by incubating the enzymes (100 pM) with a large excess of Ub-AMC (100 nM). […] To address this issue, we tested the potential of several inhibitors to block DUB activity in Ub-AMC hydrolysis assays. Enzymes were preincubated for 1 h with a 100-fold molar excess of electrophilic derivatives of Ub, SUMO, NEDD8, and ISG15, all carrying a VME moiety as the electrophile at their C-terminus.

EBV205 = biological target: T2, EBV205 (Epstein-Barr virus, UniProt P03186); format: biochemical; conditions: enzyme 100 pM, Ub-AMC 100 nM
T2 construct: encoding for AA 1-205 of EBV (EBV205) and AA 1-285 of mCMV (mCMV285); His-tag (pET28) (N); made in house; host or cells: E. coli BL21-DE3
Procedure: as §3

[2] = biological target: T3, EBV205 (AA 1-205 of EBV BPLF1) (Epstein-Barr virus, UniProt P03186); format: binding
T3 construct: encoding for AA 1-205 of EBV (EBV205) and AA 1-285 of mCMV (mCMV285); His-tag (pET28) (N); made in house; host or cells: E. coli BL21-DE3
From the text: as §1, §2

[3] = pretreatment with 10 mM NEM for 10 min
[4] = 1 μM enzyme, 2 μM HAUbVME, 30 min at 37° C.
[5] = preincubated 1 h with 100-fold molar excess of inhibitor

Nedd8-VS: electrophilic Nedd8 vinylsulfone derivative used as inhibitor
Inhibition of Ub-AMC cleavage by His6UL36^USP (His6UL36^USP): rates nearly identical to hydrolysis in the absence of these inhibitors

CCN1C(=O)C=CC1=O [NEM, N-ethylmaleimide]
Effect on labeling of the 57 kDa polypeptide with HAUbVME (UL36^USP; HSV-1 infected HFF lysates, 5 mM NEM 30 minutes prior to probe): inhibited
Effect on reaction of mCMV575 with HAUbVME ([1]; mCMV575 variant): NEM-sensitive
Effect on labeling of mCMV285 with HAUbVME probe [1, 3]: completely blocked labeling
Sensitivity of UbAMC hydrolysis by mCMV285 / mCMV575 to NEM (mCMV285, mCMV575): sensitive to NEM
Sensitivity of UbAMC hydrolysis by EBV205 to NEM (EBV205): sensitive to NEM
Effect on labeling of EBV205 with HAUbVME probe [2, 3]: completely blocked labeling

HAUbVS: HAUb-vinylsulfone, Ub-derived electrophilic probe
Labeling / reaction of UL36^USP by electrophilic probe (UL36^USP): comparably robust labeling

HAUbVME: HA-tagged Ub-vinylmethyl ester, electrophilic Ub probe forming thioether bond to DUB active site cysteine
Labeling / reaction of UL36^USP by electrophilic probe (UL36^USP): observed labeling
Covalent modification of mCMV285 by probe (shift in electrophoretic mobility) [1, 4]: covalent modification
Covalent modification of EBV205 by probe (shift in electrophoretic mobility) [2, 4]: covalent modification

SUMO-1-VS: electrophilic SUMO-1 derivative used as inhibitor
Inhibition of Ub-AMC cleavage by His6UL36^USP (His6UL36^USP): rates nearly identical to hydrolysis in the absence of these inhibitors

HA-ISG15-VME: UbL probe (18.8 kDa), HA-tagged ISG15 vinylmethyl ester
Labeling / reaction of UL36^USP by electrophilic probe (UL36^USP): did not observe reaction

UbVME: electrophilic derivative of Ub carrying a VME moiety at its C-terminus, covalent DUB inhibitor
Inhibition of UbAMC hydrolytic activity of mCMV285 / mCMV575 (mCMV285, mCMV575; [5]): completely inhibited
Inhibition of Ub-AMC cleavage by His6UL36^USP (His6UL36^USP): complete inhibition
Inhibition of UbAMC hydrolytic activity of EBV205 (EBV205; [5]): completely inhibited

HA-SUMO-1-VME: UbL probe (12.8 kDa), HA-tagged SUMO-1 vinylmethyl ester
Labeling / reaction of UL36^USP by electrophilic probe (UL36^USP): did not observe reaction

FLAG-Nedd8-VS: UbL probe (9.7 kDa), FLAG-tagged Nedd8 vinylsulfone
Labeling / reaction of UL36^USP by electrophilic probe (UL36^USP): did not observe reaction

ISG15-VS: electrophilic ISG15 derivative used as inhibitor
Inhibition of Ub-AMC cleavage by His6UL36^USP (His6UL36^USP): rates nearly identical to hydrolysis in the absence of these inhibitors
